Laboratory results taken from patent US20170119693A1, “Methods of Improving Glucose Tolerance, Hair Regrowth, and Bio-Availability” (priority 2015, published 2017).

How the values were obtained:
Format in all cases: in vivo
[1] = system: female Albino Wistar rats; test: glucose tolerance test; conditions: 25, 50, 75 mg/kg body wt daily for four months; 6 h fast, 2 g/kg intraperitoneally, tail vein blood 0-120 min; p<0.01 ResArgin, p<0.05 resveratrol
Experimental: (§1) To determine the efficacy of resveratrol-arginine conjugate, six month old female Albino Wistar rats were divided into seven groups (six rats per group) and given the following daily treatment for four months: • Group 1: Control; • Group 2: 25 mg ResArgin/kg body wt; • Group 3: 50 mg ResArgin/kg body wt; • Group 4: 75 mg ResArgin/kg body wt; • Group 5: 25 mg Resveratrol/kg body wt; • Group 6: 50 mg Resveratrol/kg body wt;
Group 7: 75 mg Resveratrol/kg body wt. In one embodiment, glucose tolerance levels were tested via a glucose tolerance test and analysis was performed. Compared to the Control group, glucose tolerance was improved in the ResArgin and resveratrol groups (p<0.01 and p<0.05 respectively) over the experimental period.
In one embodiment, glucose tolerance tests were performed after having the rats fast for 6 hours and injecting 2 g/kg body weight intraperitoneally. Blood was then collected from the tail vein at 0, 15, 30, 60 and 120 minutes after injection.

[2] = system: female Albino Wistar rats; test: hair regrowth assay; conditions: 25, 50, 75 mg/kg body wt daily for four months; dorsal hair plucked 1.5 cm x 1.5 cm, scored two weeks later from digital photographs
Experimental: as §1
In another embodiment, hair regrowth assay was done and quantified. Compared to the Control group, hair regrowth was improved in the ResArgin and resveratrol groups over the experimental period.
In the hair regrowth assay, dorsal hair was removed by plucking from a square of approximately 1.5 cm×1.5 cm. Hair growth and re-growth was scored two weeks later on the basis of digital photographs.

[3] = system: female Albino Wistar rats; test: four month daily treatment study, investigated age related conditions overall; conditions: summary of the study; effects of ResArgin being more significant than those of resveratrol
Experimental: as §1
Based on the results of the study performed, the effective dosage of resveratrol arginine conjugate is 10 to 250 mg per kilogram of body weight for a period of at least two weeks.

Oc1ccc(C=Cc2cc(O)cc(O)c2)cc1 [resveratrol]
glucose tolerance compared to the Control group [1]: improved | hair regrowth compared to the Control group [2]: improved | effect on the investigated age related conditions [3]: significantly improved
